Assay results from patent publication US6034097A, “Isoquinolines useful as analgesics” (Astra AB, priority 1996, dated 2000).
Where a name gives a salt, the structure may show the parent alone.

What was measured:
μ receptors [1] = molecular target: T1, μ receptors (Rattus norvegicus, UniProt P33535); test: Radioligand binding assay, μ receptor, (3H)-DAMGO, rat brain membranes; conditions: Ki from IC50 by Cheng and Prusoff
T1 construct: the brains minus cerebellum were removed and place in ice-cold saline solution and then homogenized; from tissue; host or cells: rat brain minus cerebellum, membrane homogenate
T1 sequence (P33535 whole entry): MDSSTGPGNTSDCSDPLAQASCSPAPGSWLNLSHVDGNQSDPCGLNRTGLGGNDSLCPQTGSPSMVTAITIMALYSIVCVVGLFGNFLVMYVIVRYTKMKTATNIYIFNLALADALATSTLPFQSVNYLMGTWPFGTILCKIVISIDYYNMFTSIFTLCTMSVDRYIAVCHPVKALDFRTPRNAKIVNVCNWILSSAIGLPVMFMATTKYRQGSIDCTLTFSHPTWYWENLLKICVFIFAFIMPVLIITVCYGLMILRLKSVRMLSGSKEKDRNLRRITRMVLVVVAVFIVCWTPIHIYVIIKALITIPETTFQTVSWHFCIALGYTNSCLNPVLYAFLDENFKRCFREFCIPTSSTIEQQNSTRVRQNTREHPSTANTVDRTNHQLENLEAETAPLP
Method: (§1) PBQ (phenyl-.rho.-benzoquinone) induced writhing in mice is an assessment of both central and peripheral analgesia. For experimental protocol see Sigmund et al., Proc. Soc. Exp. Biol. Med., 15, p. 729(1957) which is incorporated herein by reference. Central analgesia is determined by the inhibition of a hot-plate response in mice. For experimental protocol see G. Woolfe and A. Macdonald, J. Pharmacol. Exp. Ther., 80, p.300 (1944) which is incorporated herein by reference. Assays measuring opioid receptor binding affinities for μ and δ receptors as well as GPI and MVD assays are determined through experimental protocol set out in Schiller et al., Biophys. Res. Commun., 85, p.1322 (1975) incorporated herein by reference.
(§2) Male Sprague-Dawley rats weighing between 350-450 g were sacrificed by inhalation of CO2. The rats were decapitated and the brains minus cerebellum were removed and place in ice-cold saline solution and then homogenized in ice-cold 50 mM Tris buffer pH 7.4 (10 ml/brain). The membranes were centrifuged at 14000 rpm for 30 min. at 4° C. The pellets were re-suspended in approximately 6 ml/brain of ice-cold Tris buffer 50 mM pH 7.4 and stored at -78° C. until ready for use. Protein quantification of the brain homogenate was conducted according to protein assay kit purchased (Bio-Rad).
(§3) (^3 H)-DAMGO and (^3 H) DAGLE were used as radioligands for the μ and δ receptors, respectively. Radioligand 50 μl, membranes 100 μl and serially diluted test compound were incubated for 1 hr at 22° C. Non specific binding was determined using 500 fold excess of unlabeled ligand in the presence of tracer and membranes. Free ligand was separated from bound by filtration through Whatman GF/B paper (presoaked in polyethylenimine 1% aqueous solution) and rinsing with ice-cold 50 mM Tris pH 7.4 using a Brandel cell harvester. The filters were dried and radioactivity was counted in a 24 well microplate in the presence of […] scintillant per well. Radioactivity was measured using a Wallac 1450 Microbeta counter.
(§4) Ki's for the various compounds were determined from the IC50 according to the Cheng and Prusoff equation.

δ receptors = molecular target: T2, δ receptors (Rattus norvegicus, UniProt P33533); test: Radioligand binding assay, δ receptor, (3H) DAGLE, rat brain membranes; conditions: Ki from IC50 by Cheng and Prusoff
T2 construct: the brains minus cerebellum were removed and place in ice-cold saline solution and then homogenized; from tissue; host or cells: rat brain minus cerebellum, membrane homogenate
T2 sequence (P33533 whole entry): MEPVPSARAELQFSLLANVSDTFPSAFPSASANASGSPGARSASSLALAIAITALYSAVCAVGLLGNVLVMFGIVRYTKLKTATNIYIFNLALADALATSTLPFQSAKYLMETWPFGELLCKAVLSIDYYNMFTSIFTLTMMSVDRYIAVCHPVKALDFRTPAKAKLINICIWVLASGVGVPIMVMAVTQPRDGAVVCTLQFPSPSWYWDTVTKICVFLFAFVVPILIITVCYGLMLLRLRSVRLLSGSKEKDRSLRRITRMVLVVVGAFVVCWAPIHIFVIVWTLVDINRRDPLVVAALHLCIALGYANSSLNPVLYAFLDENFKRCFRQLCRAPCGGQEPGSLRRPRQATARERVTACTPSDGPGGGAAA
Method: as §1, §2
as §3, with “Free ligand was separated from bound by filtration through Whatman GF/B paper (presoaked in polyethylenimine 1% aqueous solution) and rinsing with ice-cold 50 mM Tris pH 7.4 using a Brandel cell harvester.” left out
as §4

κ receptor = molecular target: T3, κ receptor (Rattus norvegicus, UniProt P34975); test: Radioligand binding assay, κ receptor (Table 1); conditions: binding inhibition constant
T3 construct: from tissue
T3 sequence (P34975 whole entry): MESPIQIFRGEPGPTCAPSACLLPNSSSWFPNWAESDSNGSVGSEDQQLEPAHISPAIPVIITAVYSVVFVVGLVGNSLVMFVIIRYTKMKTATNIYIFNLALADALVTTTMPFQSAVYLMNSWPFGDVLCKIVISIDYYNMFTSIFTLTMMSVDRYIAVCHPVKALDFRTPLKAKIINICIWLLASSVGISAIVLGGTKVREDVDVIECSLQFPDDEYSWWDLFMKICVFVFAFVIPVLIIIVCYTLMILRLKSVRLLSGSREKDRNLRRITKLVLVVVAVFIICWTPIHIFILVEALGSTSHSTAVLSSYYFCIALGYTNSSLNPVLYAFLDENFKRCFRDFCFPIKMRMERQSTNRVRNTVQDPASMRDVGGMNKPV

μ receptors [2] = test: Guinea Pig Ileum (GPI) assay, longitudinal muscle preparation; type: cell-based
Method: (§5) The opioid activity of the peptides was assessed in vitro using the guinea pig ileum (GPI) longitudinal muscle preparation and their antinociceptive activity was determined in vivo in PBQ induced writhing models (peripheral activity) and in the hot-plate test (central activity) in rodents. […] Peripheral analgesia is shown by a high potency in the writhing test coupled with a low potency in the hot-plate test.
as §1
The activity of the peptide compounds on μ receptors was determined using the Guinea Pig Ileum (GPI) assay (longitudinal muscle preparation) according to the procedures described in Schiller et al., Biophys. Res. Commun., 85, p.1322 (1975).

CD #1 male mice = test: PBQ (phenylquinone) induced writhing assay in mice; type: in vivo; conditions: compound by subcutaneous route, dose inducing 50% reduction in number of writhes vs control
Method: The term "ED50 " as shown in table 1 for the PBQ writhing assays is defined as the dose of drug which induces a 50% reduction in the number of writhes observed compared to the control. The term "ED50 " used in the hot-plate assays is defined as the dose of drug required to increase the latency of response 2-fold compared to controls and was determined by parallel-line probit analysis.
as §5, §1
The test was performed on CD #1 male mice weighing between 18 and 22 g. The mice were weighed and marked. They were injected, by intra-peritoneal route, with 0.3 ml/20 g by weight with a solution of phenylquinone at 0.02%. The contortions which appeared during a 15 minute time period following the injection were counted. The phenylquinone was injected at time intervals of 5, 20 or 60 minutes after administration of the compound (or medium, or standard) by subcutaneous route.
The 0.02% phenylquinone solution was prepared in the following fashion. […]

[3] = In vitro stability in rat whole blood (RWB) at 37° C.; type: in vitro ADME
Method: (§6) In vitro stability of the compounds of the invention in rat whole blood (RWB) at 37° C. and in kidney brush border protease (KBBP) at 37° C.
The compound was initially dissolved in water or in 10% methyl sulfoxide (DMSO)/water to make a stock solution of 10 mg/ml.
The stock solution was added to 15 ml of freshly harvested rat whole blood and incubated at 37° C.
Blanks were prepared without spiking with compounds in rat whole blood.
Aliquots were then taken at specific time intervals, centrifuged, and a fraction of the supernatant was extracted with acetonitrile or with a solution of acetonitrile and 10% acetic acid.
The solvent(s) was(were) removed by evaporation. The resulting residue was analyzed by HPLC.

[4] = test system: kidney brush border protease (KBBP); test: In vitro stability in kidney brush border protease (KBBP) at 37° C.; type: in vitro ADME; conditions: PBS pH 7.4, 37° C.; for Metabolites in KBBP: up to 1440 minutes
Method: as §6
1.0 mg of the compounds were dissolved in 1 ml PBS pH 7.4 and 500 µL of proteases (1.14 mg of protein/ml) were added.
An initial aliquot was taken at time 0, and the reaction was immediately stopped by placing the sample in a bath of boiling water for 2 minutes (the other time intervals were 5, 15, 30, 60, 120, 1440 minutes).
Blank samples without compounds were also prepared.
The aliquoted samples were filtered on a micron 0.45 filter and the resulting sample were analyzed by HPLC.

Row | Structure (SMILES) | Ki (δ receptors) | IC50 (μ receptors [2]) | ED50 PBQ writhing (CD #1 male mice) | Metabolites in RWB [3] | half life in RWB [3] | half life in KBBP [4] | Metabolites in KBBP [4] | other results
1 | Cc1cc(O)cc(C)c1C[C@H](N)C(=O)N1Cc2ccccc2C[C@H]1C(=O)NCC(O)Cc1ccccc1.O=C(O)C(F)(F)F (stereo partly drawn) [4B, 2-S-(2-Amino-3-(4-hydroxy-2,6-dimethyl-phenyl)-propionyl)-1,2,3,4-tetrahydro-isoquinoline-3-S-carboxylic acid (2-hydroxy-3-phenyl-propyl)amide trifluoroacetic salt] | 0.1 ± 0.02 nM | 13.8 nM | 16.6 mg/kg | none detected | > 5.32 h | > 24 h | none detected | Ki (μ receptors [1]): 0.7 ± 0.27 nM; Ki (κ receptor): 20.6 ± 0.5 nM
2 | Cc1cc(O)cc(C)c1CC(NC(=N)N)C(=O)N1Cc2ccccc2C[C@H]1C(=O)NC[C@H](O)Cc1ccccc1 (some centres unmarked) [compound #3, 2-(2-Guanidino-3-(4-hydroxy-2,6-dimethyl-phenyl)-propionyl)-1,2,3,4-tetrahydro-isoquinoline-3-S-carboxylic acid (2-R-hydroxy-3-phenyl-propyl)-amide ditrifloroacetic salt] | 0.56 ± 0.09 nM |  |  |  |  |  |  | Ki (μ receptors [1]; listed as #3): 2.03 ± 0.37 nM; Ki (κ receptor; listed as #3): 277 ± 13.6 nM
3 | Cc1cc(O)cc(C)c1CC(NC(=N)N)C(=O)N1Cc2ccccc2C[C@H]1C(=O)NC[C@H](O)Cc1ccccc1.O=C(O)C(F)(F)F.O=C(O)C(F)(F)F (some centres unmarked) [compound #3A, 2-(2-Guanidino-3-(4-hydroxy-2,6-dimethyl-phenyl)-propionyl)-1,2,3,4-tetrahydro-isoquinoline-3-S-carboxylic acid (2-R-hydroxy-3-phenyl-propyl)-amide ditrifloroacetic salt] |  |  | 3.8 mg/kg |  |  |  |  | Ki (μ receptors [1]; listed as #3A): 2.94 ± 0.73 nM; Ki (κ receptor; listed as #3A): 952 ± 122 nM
4 | Cc1cc(O)cc(C)c1CC(NC(=N)N)C(=O)N1Cc2ccccc2C[C@H]1C(=O)NC[C@H](O)Cc1ccccc1 (some centres unmarked) [compound #3B, 2-(2-Guanidino-3-(4-hydroxy-2,6-dimethyl-phenyl)-propionyl)-1,2,3,4-tetrahydro-isoquinoline-3-S-carboxylic acid (2-R-hydroxy-3-phenyl-propyl)-amide ditrifloroacetic salt] |  | 7.3 nM |  |  |  |  |  | Ki (μ receptors [1]; listed as #3B): 0.5 nM; Ki (κ receptor; listed as #3B): 164 ± 17.5 nM
5 | Cc1cc(O)cc(C)c1C[C@H](N)C(=O)N1Cc2ccccc2C[C@H]1C(=O)NCC(O)Cc1ccccc1.O=C(O)C(F)(F)F (stereo partly drawn) [compound #4A, 2-S-(2-Amino-3-(4-hydroxy-2,6-dimethyl-phenyl)-propionyl)-1,2,3,4-tetrahydro-isoquinoline-3-S-carboxylic acid (2-hydroxy-3-phenyl-propyl)amide trifluoroacetic salt] |  |  |  | none detected | > 2.1 h | > 24 h | 1 detected after | 
6 | Cc1cc(O)cc(C)c1CC(N)C(=O)N1Cc2ccccc2C[C@H]1C(=O)NCCCc1ccccc1.O=C(O)C(F)(F)F (some centres unmarked) [compound #5A, 2-(2-Amino-3-(4-Hydroxy-2,6-dimethyl-phenyl)-propionyl)-1,2,3,4-tetrahydro-isoquinoline-3-S-carboxylic acid (3-phenyl-propyl)amide trifluoroacetic salt] |  |  |  | none detected | > 24 h | > 24 h | none detected | 
7 | Cc1cc(O)cc(C)c1CC(N)C(=O)N1Cc2ccccc2CC1C(=O)NCCCc1ccccc1.O=C(O)C(F)(F)F (centres unmarked) [compound #5B, 2-(2-Amino-3-(4-Hydroxy-2,6-dimethyl-phenyl)-propionyl)-1,2,3,4-tetrahydro-isoquinoline-3-carboxylic acid (3-phenyl-propyl)amide trifluoroacetic salt] |  |  |  | none detected | > 20 h | > 24 h | none detected | 
8 | Cc1cc(O)cc(C)c1CC(N)C(=O)N1Cc2ccccc2C[C@H]1C(=O)NCCCc1ccccc1.O=C(O)C(F)(F)F (some centres unmarked) [compound #6A, 2-(2-Amino-3-(4-Hydroxy-2,6-dimethyl-phenyl)-propionyl)-1,2,3,4-tetrahydro-isoquinoline-3-S-carboxylic acid (3-phenyl-propyl)amide trifluoroacetic salt] | 0.84 ± 0.08 nM | 5.1 nM | 2.4 mg/kg |  |  |  |  | Ki (μ receptors [1]): 0.11 ± 0.02 nM; Ki (κ receptor): 49.6 ± 8.7 nM
